Series [1] deals with rabbit erythrocytes.
Series [2] has as its system Aspergillus flavus. The class given is cell-based.
Series [3] has as its system Fusarium graminearum. It counts as cell-based.
The test system of series [4] is Fusarium moniliforme. The class given is cell-based.
Series [5] concerns E. coli. The class given is cell-based.
Series [6] deals with Salmonella typhimurium (ATCC 13311). The class given is cell-based.
The subject of series [7] is Pseudomonas aeruginosa (ATCC 21036). It counts as cell-based.
Series [8] deals with Staphylococcus aureaus (ATCC 25923). The class given is cell-based, S. aureus.
Series [9] concerns Shigella dysenteriae (ATCC 13313). The series is described as follows: Disk diffusion assay, human pathogens. The class given is cell-based. (A growth-free zone around the sample is the usual read-out of agar diffusion tests.)
In series [10] the test system is Candida albicans (ATCC 10231). It counts as cell-based.
The subject of series [11] is maize protoplasts (Black Mexican Sweet).
Series [12] has as its system human erythrocytes. Particulars: red cells of human, 100 μM.
Series [13] relates to human erythrocytes. To be noted: cited from earlier work.
[14] abbreviates: average of two independent measurements, SD 15%.
The mark [15] stands for this setting: minimum complete inhibitory concentration, average of two measurements.

Results on five molecules are retold here after patent US6015941A, “Peptide derivatives of tachyplesin having antimicrobial activity” (Pioneer Hi-Bred International, Inc., priority 1997, dated 2000).

Read-outs that look alike come from different tables or passages of the source. Positions of bridges follow the written chain, without caps; N, C: chain ends. Residues, ends and D or L forms follow the SMILES beside them.

For `CC[C@H](C)[C@H](NC(=O)CN)C(=O)NCC(=O)N[C@@H](C)C(=O)N[C@H](C(=O)N[C@@H](CC(C)C)C(=O)N[C@@H](CCCCN)C(=O)N[C@H](C(=O)N[C@@H](CC(C)C)C(=O)N[C@H](C(=O)N[C@H](C(=O)NCC(=O)N[C@@H](CC(C)C)C(=O)N1CCC[C@H]1C(=O)N[C@@H](C)C(=O)N[C@@H](CC(C)C)C(=O)N[C@H](C(=O)N[C@@H](CO)C(=O)N[C@@H](Cc1c[nH]c2ccccc12)C(=O)N[C@H](C(=O)N[C@@H](CCCCN)C(=O)N[C@@H](CCCNC(=N)N)C(=O)N[C@@H](CCCCN)C(=O)N[C@@H](CCCNC(=N)N)C(=O)N[C@@H](CCC(N)=O)C(=O)N[C@@H](CCC(N)=O)C(N)=O)[C@@H](C)CC)[C@@H](C)CC)[C@@H](C)O)[C@@H](C)O)C(C)C)C(C)C` [Melittin], the “lysis of rabbit erythrocytes” value in [1] is listed as “complete lysis”.

Turning to `CC[C@H](C)[C@@H]1NC(=O)CNC(=O)[C@H](CCCNC(=N)N)NC(=O)[C@H](Cc2ccc(O)cc2)NC(=O)[C@@H]2CSSC[C@H](NC1=O)C(=O)N[C@@H](Cc1ccc(O)cc1)C(=O)N[C@@H](CCCNC(=N)N)C(=O)N[C@@H](CCCNC(=N)N)C(=O)N[C@H](C(=O)N[C@@H](CCCNC(=N)N)C(=O)O)CSSC[C@H](NC(=O)[C@H](Cc1c[nH]c3ccccc13)NC(=O)[C@@H](N)CCCCN)C(=O)N[C@@H](Cc1ccccc1)C(=O)N[C@@H](CCCNC(=N)N)C(=O)N[C@@H](C(C)C)C(=O)N2` [TP, tachyplesin] (H-KWCFRVCYRGICYRRCR-OH; disulfide 3-16, 7-12), in [2], the “A. flavus MCIC” value worked out at 34 and the A. flavus MIC came to 13 µM. Moreover, the “F. graminearum MIC” value in series [3] (setting [14]) came to 8 µM. In addition, the “F. graminearum MCIC” value in series [3] (setting [15]) is 17 µM. Besides, in [4], the “F. moniliforme MCIC” value worked out at 21 and the F. moniliforme MIC was 8 µM. Also, in [5], the “E. coli MCIC” value is 3 and the E. coli MIC was determined as 1 µM. The S. typhimurium zone size in series [6] turned out to be 18 mm. The same molecule gave a P. aeruginosa zone size in series [7] of 14 mm. In series [8], this molecule displayed a S. aureus zone size of 18 mm. Further, the “S. dysenteria zone size” value in series [9] (50 μg per disk) came out at 18 mm. Further, the “S. dysenteria zone size” value in [9] (100 μg per disk) came out at 18 mm. The C. albicans zone size in series [10] amounted to 16 mm. Besides, the “order of toxicity as measured by cell viability” value in [11] was “TPF>TP/TPM>TPI/TPL>TPY>TPA/TPV and TPD”. Besides, the “lysis of rabbit erythrocytes” value in series [1] is reported as “little or no activity”. In addition, the “hemolysis of human erythrocytes” value in series [12] was “about 15%”.

Consider `CC[C@H](C)[C@@H]1NC(=O)CNC(=O)[C@H](CCCNC(=N)N)NC(=O)[C@H](Cc2ccc(O)cc2)NC(=O)[C@@H]2CSSC[C@H](NC1=O)C(=O)N[C@@H](Cc1ccc(O)cc1)C(=O)N[C@@H](CCCNC(=N)N)C(=O)N[C@@H](CCCNC(=N)N)C(=O)N[C@H](C(=O)N[C@@H](CCCNC(=N)N)C(N)=O)CSSC[C@H](NC(=O)[C@H](Cc1c[nH]c3ccccc13)NC(=O)[C@@H](N)CCCCN)C(=O)N[C@@H](Cc1ccccc1)C(=O)N[C@@H](CCCNC(=N)N)C(=O)N[C@@H](C(C)C)C(=O)N2` [amidated-TP] (H-KWCFRVCYRGICYRRCR-NH2; disulfide 3-16, 7-12), for which the “hemolysis of human erythrocytes” value in series [12] was “about 30%”. Besides, the “lysis of human erythrocytes” value in series [13] is given as 100%.

Consider cecropin B, for which, in series [2], the “A. flavus MCIC” value is listed as above 20 and the A. flavus MIC was above 20 µM. The “F. graminearum MIC” value in series [3] (setting [14]) came to 3 µM. For the same molecule, the “F. graminearum MCIC” value in [3] (setting [15]) turned out to be 5 µM. Moreover, in series [4], the “F. moniliforme MCIC” value was 20 and the F. moniliforme MIC is 3 µM.

Consider mastoparan [mastoporan], for which, in series [2], the “A. flavus MCIC” value is above 50 and the A. flavus MIC was 24 µM. Also, in series [3], the “F. graminearum MCIC” value is listed as 8 and the F. graminearum MIC worked out at 5 µM. In series [4], the “F. moniliforme MCIC” value worked out at 11 and the F. moniliforme MIC worked out at 3 µM.
